Source: patent US8552176B2 (priority 2010, dated 2013)

Key:
Experiment in all cases: cells
Type in all cases: cell-based, human
A549 = conditions: read-out: GI50 A549 lung (+p53)
H1299 = conditions: read-out: GI50 H1299 lung (−p53)
SF-268 = conditions: read-out: GI50 SF-268 CNS
SKOV3 = conditions: read-out: GI50 SKOV3 ovary
NCI-H460 = conditions: read-out: GI50 NCI-H460 lung
MCF7 = conditions: read-out: GI50 MCF7 breast
HCT-15 = conditions: read-out: GI50 HCT-15 colorectal
HT29 = conditions: read-out: GI50 HT29 colorectal
DU-145 = conditions: read-out: GI50 DU-145 prostate
Hep3b = conditions: read-out: GI50 Hep3b liver

Row | SMILES | GI50 (A549) [µM] | GI50 (H1299) [µM] | GI50 (SF-268) [µM] | GI50 (SKOV3) [µM] | GI50 (NCI-H460) [µM] | GI50 (MCF7) [µM] | GI50 (HCT-15) [µM] | GI50 (HT29) [µM] | GI50 (DU-145) [µM] | GI50 (Hep3b) [µM]
1 | CON(CCCCc1ccc(N(CCCl)CCCl)cc1)C1OCC(O)C(O)C1O (mixture of isomers) [Compound 41] | 2.3 ± 0.1 | 0.76 ± 0.05 | 1.6 ± 0.1 | 1.8 ± 0.1 | 5.2 ± 0.4 | 1 ± 0.2 | 0.79 ± 0.05 | 2 ± 0.1 | 3.6 ± 0.1 | 2.5 ± 0.1
2 | CON(CCCCc1ccc(N(CCCl)CCCl)cc1)C1OCC(O)C(O)C1O (mixture of isomers) [Compound 42] | 2.2 ± 0.1 | 0.88 ± 0.04 | 1.2 ± 0.1 | 1.8 ± 0.1 | 5.8 ± 0.1 | 0.94 ± 0.2 | 0.95 ± 0.08 | 2.4 ± 0.1 | 3.9 ± 0.1 | 3 ± 0.1
3 | CON(CCCCc1ccc(N(CCCl)CCCl)cc1)C1OC(CO)C(O)C(O)C1O (mixture of isomers) [Compound 43] | 3.5 ± 0.2 | 1.01 ± 0.07 | 1.8 ± 0.1 | 2.3 ± 0.1 | 7.8 ± 0.7 | 1.9 ± 0.1 | 1.9 ± 0.2 | 2.6 ± 0.2 | 5.1 ± 0.2 | 3.2 ± 0.2
4 | CON(CCCCc1ccc(N(CCCl)CCCl)cc1)C1OC(CO)C(O)C(O)C1O (mixture of isomers) [Compound 44] | 4.1 ± 0.2 | 1.2 ± 0.1 | 2 ± 0.1 | 2.9 ± 0.1 | 9.8 ± 0.9 | 2.2 ± 0.2 | 2.2 ± 0.1 | 3.4 ± 0.2 | 4.9 ± 0.1 | 3.7 ± 0.2
5 | CON(CCCCc1ccc(N(CCCl)CCCl)cc1)C1OC(CO)C(O)C(O)C1NC(C)=O (mixture of isomers) [Compound 45] | 21 ± 2 | 2.7 ± 0.2 | 3.4 ± 0.2 | 10.1 ± 0.9 | 33.3 ± 0.5 | 9 ± 1 | 22 ± 2 | 8.7 ± 0.7 | 16 ± 1 | 9.8 ± 0.7
6 | CON(CCCCc1ccc(N(CCCl)CCCl)cc1)C1OC(C)C(O)C(O)C1O (mixture of isomers) [Compound 51] | 2.5 ± 0.1 | 3.7 ± 0.3 | 1.9 ± 0.1 | 2 ± 0.1 | 5.3 ± 0.4 | 2.2 ± 0.2 | 2 ± 0.1 | 2.4 ± 0.1 | 4.2 ± 0.1 | 2.6 ± 0.1
7 | CON(CCCCc1ccc(N(CCCl)CCCl)cc1)C1CC(O)C(O)CO1 (mixture of isomers) [Compound 55] | 2.6 ± 0.2 | 3.7 ± 0.2 | 2.1 ± 0.1 | 2 ± 0.1 | 5.8 ± 0.6 | 0.96 ± 0.02 | 2.3 ± 0.1 | 2.6 ± 0.1 | 4 ± 0.1 | 2.6 ± 0.1
8 | CON(CCCCc1ccc(N(CCCl)CCCl)cc1)C1CC(O)C(O)CO1 (mixture of isomers) [Compound 56] | 2.5 ± 0.1 | 3.9 ± 0.5 | 2 ± 0.1 | 2.2 ± 0.1 | 5.2 ± 0.6 | 1.3 ± 0.2 | 2.2 ± 0.1 | 2.3 ± 0.1 | 3.3 ± 0.1 | 2.5 ± 0.1
9 | CC(=O)OC1COC(N(CCCCc2ccc(N(CCCl)CCCl)cc2)OC(C)=O)C(OC(C)=O)C1OC(C)=O (mixture of isomers) [Compound 69, N-Acetoxy-4-(4-N′,N′-bis(2-chloroethyl)amino)phenylbutylamino-D-riboside peracetate] | 1.12 ± 0.07 | 1.05 ± 0.05 | 1.6 ± 0.1 | 0.53 ± 0.01 | 1.3 ± 0.1 | 4.6 ± 0.3 | 1.1 ± 0.1 | 0.96 ± 0.07 | > 5 | > 5
10 | O=C(CCCc1ccc(N(CCCl)CCCl)cc1)NN=CC(O)C(O)CO (mixture of isomers) [Compound 74, 4-(4-N′,N′-bis(2-chloroethyl)amino)phenylbutylhydrazido-D-threoside inline] | 7.5 ± 0.5 | 2.6 ± 0.2 | 2.6 ± 0.2 | 6.2 ± 0.6 | 10.8 ± 0.8 | 4.2 ± 0.2 | 7.3 ± 0.4 | 4.8 ± 0.1 | 9.5 ± 0.7 | 4.1 ± 0.4
11 | CON(CCCCc1ccc(N(CCCl)CCCl)cc1)C1OC(COCc2ccccc2)C(OCc2ccccc2)C1OCc1ccccc1 (stereo not shown) [Compound 16] | > 100 | > 100 | 80 ± 5 | > 100 | > 100 | 82 ± 1 | 64 ± 8 | 47 ± 1 | > 100 | > 100
12 | CON(CCCCc1ccc(N(CCCl)CCCl)cc1)C1OCC(O)C1O (stereo not shown) [Compound 19] | 3.1 ± 0.8 | 1.1 ± 0.1 | 2.4 ± 0.8 | 2.6 ± 0.9 | 7.8 ± 0.9 | 8 ± 0.1 | 0.77 ± 0.09 | 1.6 ± 0.1 | 5 ± 0.7 | 4.1 ± 0.9
13 | CON(CCCCc1ccc(N(CCCl)CCCl)cc1)C1OC(CO)C(O)C(O)C1O (stereo not shown) [Compound 28] | 4.5 ± 0.2 | 1.4 ± 0.1 | 1.8 ± 0.1 | 3 ± 0.1 | 12.3 ± 0.7 | 1.5 ± 0.1 | 2.8 ± 0.2 | 2.9 ± 0.4 | 5.5 ± 0.2 | 3.4 ± 0.1
14 | CON(CCCCc1ccc(N(CCCl)CCCl)cc1)C1OC(CO)C(O)C(O)C1O (stereo not shown) [Compound 29] | 6.8 ± 0.8 | 1.6 ± 0.1 | 2.2 ± 0.1 | 4.5 ± 0.6 | 14.3 ± 0.9 | 1.8 ± 0.2 | 2.8 ± 0.2 | 4.6 ± 0.4 | 7 ± 0.5 | 5 ± 0.6
15 | CON(CCCCc1ccc(N(CCCl)CCCl)cc1)C1CC(O)C(O)C(CO)O1 (stereo not shown) [Compound 30] | 3.1 ± 0.5 | 0.58 ± 0.06 | 2.5 ± 0.5 | 1.12 ± 0.1 | 5.4 ± 0.6 | 5.4 ± 0.1 | 0.7 ± 0.05 | 1.2 ± 0.2 | 4.3 ± 0.3 | 3.7 ± 0.3
16 | CON(CCCCc1ccc(N(CCCl)CCCl)cc1)C1OC(CO)C(O)C(O)C1F (stereo not shown) [Compound 31] | 2.6 ± 0.1 | 1.2 ± 0.1 | 2.2 ± 0.1 | 2 ± 0.1 | 6.4 ± 0.07 | 7.3 ± 0.1 | 1.08 ± 0.04 | 2.4 ± 0.2 | 4.2 ± 0.1 | 3.2 ± 0.1
17 | CON(CCCCc1ccc(N(CCCl)CCCl)cc1)C1OC(CO)C(O)C(F)C1O (stereo not shown) [Compound 32] | 3 ± 0.1 | 1.3 ± 0.1 | 2.2 ± 0.1 | 2.2 ± 0.1 | 7.1 ± 0.9 | 7 ± 0.8 | 1.2 ± 0.1 | 2.6 ± 0.2 | 4.1 ± 0.1 | 3.2 ± 0.1
18 | COC1C(O)C(CO)OC(N(CCCCc2ccc(N(CCCl)CCCl)cc2)OC)C1O (stereo not shown) [Compound 33] | 3.6 ± 0.2 | 1.7 ± 0.1 | 2.8 ± 0.1 | 2.4 ± 0.1 | 7.8 ± 0.08 | 8.3 ± 0.1 | 1.1 ± 0.1 | 2.7 ± 0.2 | 5.1 ± 0.1 | 4.2 ± 0.2
19 | C=CCOC(=O)NCC1OC(N(CCCCc2ccc(N(CCCl)CCCl)cc2)OC)C(O)C(O)C1O (stereo not shown) [Compound 35] | 4.5 ± 0.3 | 2.1 ± 0.1 | 3.1 ± 0.1 | 2.9 ± 0.1 | 11 ± 0.1 | 7.4 ± 0.1 | 2.1 ± 0.1 | 2.8 ± 0.2 | 6.2 ± 0.4 | 4.6 ± 0.2
20 | CON(CCCCc1ccc(N(CCCl)CCCl)cc1)C1OC(CCl)C(O)C(O)C1O (stereo not shown) [Compound 36] | 3 ± 0.1 | 1.3 ± 0.1 | 2.1 ± 0.1 | 2.1 ± 0.1 | 5.8 ± 0.6 | 4.9 ± 0.1 | 1.2 ± 0.1 | 2.1 ± 0.1 | 3.7 ± 0.1 | 3.2 ± 0.2
21 | CON(CCCCc1ccc(N(CCCl)CCCl)cc1)C1OC(C(=O)O)C(O)C(O)C1O (stereo not shown) [Compound 38] | 5.5 ± 0.3 | 0.99 ± 0.03 | 1.6 ± 0.1 | 3.1 ± 0.1 | 9.1 ± 0.9 | 6 ± 0.1 | 1.03 ± 0.05 | 3.2 ± 0.3 | 3.9 ± 0.1 | 4.9 ± 0.3
22 | CON(CCCCc1ccc(N(CCCl)CCCl)cc1)C1O[C@H](CO)[C@@H](O[C@@H]2O[C@H](CO)[C@H](O)[C@H](O)[C@H]2O)[C@H](O)[C@@H]1O (stereo partly shown) [Compound 46] | 56 ± 1 | 24 ± 1 | 19.1 ± 0.7 | 35 ± 1 | 57.7 ± 0.5 | 26 ± 2 | 31 ± 1 | 34 ± 3 | 43 ± 3 | 38 ± 2
23 | CON(CCCCc1ccc(N(CCCl)CCCl)cc1)[C@@H]1O[C@H](CO[C@H]2O[C@H](CO)[C@H](O)[C@H](O)[C@H]2O)[C@@H](O)[C@H](O)[C@H]1O [Compound 47] | 40 ± 2 | 17.8 ± 0.06 | 16.3 ± 0.5 | 27 ± 1 | 45.5 ± 0.4 | 21 ± 2 | 20 ± 1 | 27.4 ± 0.3 | 36 ± 1 | 29 ± 3
24 | CON(CCCCc1ccc(N(CCCl)CCCl)cc1)[C@@H]1O[C@H](CO)[C@@H](O)[C@H](O[C@H](C)C(=O)O)[C@H]1NC(C)=O [Compound 48] | 8.6 ± 0.6 | 2.4 ± 0.2 | 4.1 ± 0.1 | 7 ± 0.2 | 13.1 ± 0.3 | 4.5 ± 0.3 | 3.1 ± 0.2 | 6.3 ± 0.3 | 8.9 ± 0.3 | 8 ± 0.4
25 | CO[C@@H]1[C@@H](OC(N)=O)[C@@H](O)C(N(CCCCc2ccc(N(CCCl)CCCl)cc2)OC)OC1(C)C (stereo partly shown) [Compound 49] | 5.8 ± 0.8 | 1.3 ± 0.2 | 5.1 ± 0.8 | 5.4 ± 0.8 | 9.7 ± 0.5 | 4.8 ± 0.9 | 1.7 ± 0.2 | 6 ± 0.1 | 6.7 ± 0.5 | 6 ± 1
